Measurements as given in US20070128217A1 (priority 2003, published 2007).

How the values were obtained:
[1] = system: rabbit serum obtained by immunizing a rabbit with the SARS-CoV strain Frankfurt 1; type: binding; parameters: Binding of a rabbit serum to linear peptides / Binding of a rabbit serum to looped peptides / Rabbit serum linear peptides / Rabbit serum looped peptides / Binding of a rabbit serum to linear peptides of protein N of SARS-CoV Urbani (Rabbit serum linear peptides) / Binding of a rabbit serum to looped/cyclic peptides of protein N of SARS-CoV Urbani (Rabbit serum looped peptides): unit not given here
[2] = system: control sera (pooled serum of ten healthy LUMC hospital workers; commercial negative donor pooled serum from the Dutch bloodbank); type: binding, human; parameters: Binding of Control serum LUMC to linear peptides / Binding of Control serum Blood-bank to linear peptides / Binding of Control serum LUMC to looped peptides / Binding of Control Serum Blood-Bank to Looped peptides / Binding of Control serum LUMC to linear peptides of the protein M of SARS-CoV Urbani / Binding of Control serum Blood-bank to linear peptides of the protein M of SARS-CoV Urbani / Binding of Control serum LUMC to looped peptides of the protein M of SARS-CoV Urbani / Binding of Control Serum Blood-Bank to Looped peptides of the protein M of SARS-CoV Urbani: unit not given here

## ARCWYLHEGHQTAAF
[1]
  Rabbit serum linear peptides: 0.3
  Rabbit serum looped peptides: 0.6

## AVIIRGHLRMAGHPL
[1]
  Rabbit serum linear peptides: 0.3
  Rabbit serum looped peptides: 0.6

## DNASPASTVHATATI
[1]
  Binding of a rabbit serum to linear peptides: 0.7
  Binding of a rabbit serum to looped peptides: 0.3

## EELKQLLEQWNLVIG
[1]
  Rabbit serum linear peptides: 0.4
  Rabbit serum looped peptides: 0.4

## EGNSPFHPLADNKFA
[1]
  Rabbit serum linear peptides: 0.7
  Rabbit serum looped peptides: 0.7

## FAGTHITMTTVYHIT
[1]
  Binding of a rabbit serum to linear peptides: 0.6
  Binding of a rabbit serum to looped peptides: 0.4

## FICNLLLLFVTTYSH
[2]
  Binding of Control Serum Blood-Bank to Looped peptides: 0.5
  Binding of Control serum Blood-bank to linear peptides: 0.6
  Binding of Control serum LUMC to linear peptides: 0.5
  Binding of Control serum LUMC to looped peptides: 0.5

## GAVIIRGHLRMAGHP
[1]
  Rabbit serum linear peptides: 0.8
  Rabbit serum looped peptides: 0.5

## GFQFIGNLLLLFVTI
[1]
  Binding of a rabbit serum to linear peptides: 0.9
  Binding of a rabbit serum to looped peptides: 0.5

## GHPLGRCDIKDLPKE
[2]
  Binding of Control Serum Blood-Bank to Looped peptides of the protein M of SARS-CoV Urbani: 0.7
  Binding of Control serum Blood-bank to linear peptides of the protein M of SARS-CoV Urbani: 0.6
  Binding of Control serum LUMC to linear peptides of the protein M of SARS-CoV Urbani: 0.6
  Binding of Control serum LUMC to looped peptides of the protein M of SARS-CoV Urbani: 0.7

## GTITVEELKQLLEQW
[1]
  Recognition of the peptide by the rabbit serum: recognized
